Assay results: ChEMBL document CHEMBL5241090, “A comprehensive overview of β-carbolines and its derivatives as anticancer agents” (Eur J Med Chem, 2021)
Values after ≈ are worked out from the molar mass of the structure shown.

Columns and labels:
RAW264.7 = assay: Cytotoxicity against mouse RAW264.7 cells; assay type: functional, cell-based
BT-474 = assay: Cytotoxicity against human BT-474 cells; assay type: functional, cell-based
HCT-116 = assay: Cytotoxicity against human HCT-116 cells; assay type: functional, cell-based
THP-1 = assay: Cytotoxicity against human THP-1 cells; assay type: functional, cell-based
MOLT-4 = assay: Cytotoxicity against human MOLT-4 cells; assay type: functional, cell-based
A549 = assay: Cytotoxicity against human A549 cells; assay type: functional, cell-based
NCI-H460 = assay: Cytotoxicity against human NCI-H460 cells; assay type: functional, cell-based
HL-60 = assay: Cytotoxicity against human HL-60 cells; assay type: functional, cell-based; settings: Homo sapiens, HL-60; read-out: IC50
[1] = biological target: Serine/threonine-protein kinase PLK1 (Homo sapiens, UniProt P53350); assay: Inhibition of PLK1 (unknown origin)
[2] = biological target: Cyclin-dependent kinase 2/cyclin A (Homo sapiens, UniProt P24941); assay: Inhibition of CDK2/Cyclin A (unknown origin); assay type: protein-complex assay
[3] = biological target: Serine/threonine-protein kinase haspin (Homo sapiens, UniProt Q8TF76); assay: Inhibition of HASPIN (unknown origin)
L1210 = assay: Cytotoxicity against mouse L1210 cells; assay type: functional, cell-based
MOLT-4F = assay: Cytotoxicity against human MOLT-4F cells; assay type: functional, cell-based
MT4 = assay: Cytotoxicity against human MT4 cells; assay type: functional, cell-based

Serine/threonine-protein kinase PLK1, sequence (P53350 whole entry): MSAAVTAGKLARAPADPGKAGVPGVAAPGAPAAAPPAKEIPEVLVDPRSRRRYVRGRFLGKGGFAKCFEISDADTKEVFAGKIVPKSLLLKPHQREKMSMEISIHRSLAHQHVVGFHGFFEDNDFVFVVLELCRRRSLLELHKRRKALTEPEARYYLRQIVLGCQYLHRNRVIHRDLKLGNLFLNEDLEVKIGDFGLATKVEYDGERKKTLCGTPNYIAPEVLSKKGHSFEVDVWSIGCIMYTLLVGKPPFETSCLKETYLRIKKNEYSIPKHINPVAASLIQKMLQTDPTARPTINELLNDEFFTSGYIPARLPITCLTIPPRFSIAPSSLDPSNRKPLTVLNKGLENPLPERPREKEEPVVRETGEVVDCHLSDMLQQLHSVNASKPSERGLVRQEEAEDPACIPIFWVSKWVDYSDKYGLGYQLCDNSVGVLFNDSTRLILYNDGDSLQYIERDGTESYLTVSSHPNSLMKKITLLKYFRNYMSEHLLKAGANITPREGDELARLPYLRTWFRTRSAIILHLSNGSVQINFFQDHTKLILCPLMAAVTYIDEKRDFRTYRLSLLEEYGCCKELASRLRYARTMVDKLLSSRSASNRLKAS
Serine/threonine-protein kinase haspin, sequence (Q8TF76 whole entry): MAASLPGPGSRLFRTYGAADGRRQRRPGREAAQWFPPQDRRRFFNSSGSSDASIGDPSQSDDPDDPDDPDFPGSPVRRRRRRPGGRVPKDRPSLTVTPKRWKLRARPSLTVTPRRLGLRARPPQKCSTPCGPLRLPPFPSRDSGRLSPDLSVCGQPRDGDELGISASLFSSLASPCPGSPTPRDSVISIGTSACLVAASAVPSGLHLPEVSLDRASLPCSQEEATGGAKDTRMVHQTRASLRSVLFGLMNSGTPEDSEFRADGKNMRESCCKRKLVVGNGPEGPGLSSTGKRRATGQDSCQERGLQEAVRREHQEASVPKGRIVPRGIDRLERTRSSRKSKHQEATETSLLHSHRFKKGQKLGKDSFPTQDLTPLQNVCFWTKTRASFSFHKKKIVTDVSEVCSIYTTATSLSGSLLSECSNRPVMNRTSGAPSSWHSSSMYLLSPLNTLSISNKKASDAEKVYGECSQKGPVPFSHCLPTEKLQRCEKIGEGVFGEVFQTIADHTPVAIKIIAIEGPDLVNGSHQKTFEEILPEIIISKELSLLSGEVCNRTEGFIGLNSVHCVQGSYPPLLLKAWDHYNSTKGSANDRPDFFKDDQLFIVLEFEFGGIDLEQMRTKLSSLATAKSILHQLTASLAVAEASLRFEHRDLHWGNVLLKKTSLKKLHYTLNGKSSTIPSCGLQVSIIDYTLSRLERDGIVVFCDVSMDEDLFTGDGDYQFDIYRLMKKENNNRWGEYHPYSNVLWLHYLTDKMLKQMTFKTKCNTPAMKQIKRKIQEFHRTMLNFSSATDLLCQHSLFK

**Q.** How did the IC50 (RAW264.7) turn out when `CN1CCN(C(=O)[C@H]2Cc3c([nH]c4ccccc34)CN2Cc2ccc3ccccc3c2Br)CC1` was run?
**A.** Its IC50 is 18000 nM.

**Q.** Which results are given for `COc1ccc(-c2nc(C(=O)Nc3nc4ccc([N+](=O)[O-])cc4s3)cc3c2[nH]c2ccccc23)cc1`?
**A.** IC50 (BT-474): 1460 nM; IC50 (HCT-116): 1460 nM; IC50 (THP-1): 1460 nM; IC50 (MOLT-4): 1460 nM; IC50 (A549): 1460 nM; IC50 (NCI-H460): 1460 nM; IC50 (HL-60): 1460 nM

**Q.** With `COc1ccc2c3cc[n+](CCCc4ccccc4)c(C)c3n(Cc3cccc(Cl)c3)c2c1` as the compound, how does the IC50 [1] read?
**A.** The IC50 was 897 nM.

**Q.** How did the IC50 [2] turn out when `CCCC[n+]1ccc2c3ccccc3n(Cc3ccccc3)c2c1-c1ccccc1Cl` was run?
**A.** Its IC50 is 27000 nM.

**Q.** With `Cc1nccc2c1[nH]c1cc(O)ccc12` as the compound, how does the IC50 [3] read?
**A.** Its IC50 is 770 nM.

**Q.** Which IC50 (L1210) does the source give for `COc1ccc2[nH]c3c(c2c1)CCN1OCSC[C@@H](N)C31` (some centres undefined) here?
**A.** Its IC50 is 5 ng/mL (≈ 0.0164 µM).

**Q.** What about the IC50 (MOLT-4F) of the same compound?
**A.** The IC50 was 6.2 ng/mL (≈ 0.0203 µM).

**Q.** And the IC50 (MT4)?
**A.** Its IC50 is 5 ng/mL (≈ 0.0164 µM).
